“Also recorded” adds a separate entry of the source.
How the values were obtained:
24-month-old rats = details: cited from earlier work
aging accelerated mice = details: intraperitoneally injected daily; cited from earlier work
[1] = in vivo; cited from earlier work
Dopaminergic neurons = test: Cytoprotection on injuries of dopaminergic neurons induced by MPP+; type: cell-based; details: 500 μM, 50 μM and 5 μM, MPP+ 10 μM, FIG. 5
Protocol: Dopaminergic neurons were cultured for 5 days, and L-Deprenyl, TMP and TN-2 were added in a concentration gradient of 500 μM, 50 μM and 5 μM respectively. Two hours later, MPP^+(with a final concentration of 10 μM) was added into each of the wells except those of the control.

PC12 cells = test: Cytoprotection of PC12 cells against t-BHP-induced damage (MTT); type: cell-based, rats; details: t-BHP 200 μM, FIG. 3
Protocol: PC12 cells were inoculated in a 96-well plate of strong adsorption with 90 μL per well, cultured for 36 hrs in an incubator set at 37° C. and 5% CO2. After 36 hrs, each of the drugs was added in four concentration gradients. Cultured for half an hour in an incubator set at 37° C. and 5% CO2, replaced with serum-free medium, t-BHP ([…], final concentration of 200 μM) was added in each of the wells except the well of the control. Then the material was placed and cultured in an incubator for 24 hrs. The cells were cultured for 24 hrs, and MTT (15 μL, 5 mg/mL) was added in each of the wells. The material was cultured in an incubator for 4 hrs, and then DMSO ([…]) was added in each of the wells to be further incubated for at least half an hour to ensure the crystals were completely dissolved. The absorbance (A value) was measured by using a micro-plate reader at 570 nm.

[2] = test system: rats with ischemia caused by MCAo; test: Protection of rats having cerebral ischemia caused by MCAO (TTC, extent of cerebral infarction); type: in vivo; details: 65 mg/kg intravenously 1 hr after ischemia, 2 hrs ischemia, 24 hrs reperfusion, FIG. 4
Protocol: Anesthesia was performed on rats (female SD rats, in body weight of 260-300 g) with intraperitoneal injection of 10% hydrated chloral hydrate in a dose of 400 mg/kg or with inhalation of 3.5% halothane. At the entrance of MCAO (Middle Cerebral Artery Occlusion Ischemia) was blocked with a nylon wire to cause cerebral ischemia. After ischemia occurred for 1 hr, the rats were respectively intravenously injected with EDA (63 mg/kg), TBN (80 mg/kg), TN-2 (65 mg/kg), and saline (control group). There were 6 rats in each group. After ischemia occurred for 2 hrs, the nylon wires were removed, and reperfusion was performed for 24 hrs. Brain tissues were taken and the cerebellums were removed. The material was rinsed in PBS solution, and put in a freezer set at −20° C. for a moment, and the brain tissues were cut into slices with a thickness of about 2 mm, and immediately placed in a solution of 0.5% triphenyltetrazolium chloride (TTC). Incubation was performed at 37° C. for 30 minutes. The extent of cerebral infarction was evaluated. […] In FIG. 4, the data were examined by one-tailed t-test; the mark “*” refers to the data in comparison with the control; drug dosage: TBN (80 mg/kg), and Edaravone (63 mg/kg); and each of the drugs were used in equal molarity.

[3] = 32 mg/kg intraperitoneally daily for 9.5 months

## CC(C)(C)/[N+]([O-])=C/c1ccccc1 [PBN, Phenyl-tert-Butyl Nitrones]
24-month-old rats; [3]
  cognitive ability for older rats: enhanced
  lipid peroxidation reactions in cerebral cortex and globus pallidus: diminished
24-month-old rats; when the experiment was run for 32 months
  rats still alive: 7 of the 11
Aging accelerated mice
  increase in the lifespan of the mice: 33%

## Cc1nc(C)c(C)nc1C [TMP, Tetramethylpyrazine]
[1]
  bioavailability: low

## Cc1nc(/C=[N+](/[O-])C(C)(C)C)c(C)nc1/C=[N+](/[O-])C(C)(C)C [TN-2]
Dopaminergic neurons
  cytoprotection to the MPP+-induced cell damage: significant
PC12 cells; 24 hrs, MTT absorbance at 570 nm
  cytoprotection towards the t-BHP-induced cell damage: significant effect of cytoprotection; also recorded: significant protective effects
PC12 cells
  intensity of the cytoprotective effect compared with TMP: significantly higher than that of TMP
[2]
  treatment effects on stroke of the rats (extent of cerebral infarction): significant treatment effects

From patent US8796281B2, “Lighting device having at least one heat sink” (Jinan University, priority 2010, dated 2014)
